Results published in ChEMBL document CHEMBL2311471, “Synthesis of (E)-8-(3-chlorostyryl)caffeine analogues leading to 9-deazaxanthine derivatives as dual A(2A) antagonists/MAO-B inhibitors” (J Med Chem, 2013).
Activity calls are given as the source filed them. The calls are words filed in the database; no cut-off is given here.

Legend:
[1] = biological target: Adenosine receptor A2a (Rattus norvegicus, UniProt P30543); experiment: Binding affinity to A2A receptor in rat brain striatal membrane by radioligand displacement assay; type: cell membranes
Adenosine receptor A2a (Rattus norvegicus, UniProt P30543), sequence (P30543 whole entry): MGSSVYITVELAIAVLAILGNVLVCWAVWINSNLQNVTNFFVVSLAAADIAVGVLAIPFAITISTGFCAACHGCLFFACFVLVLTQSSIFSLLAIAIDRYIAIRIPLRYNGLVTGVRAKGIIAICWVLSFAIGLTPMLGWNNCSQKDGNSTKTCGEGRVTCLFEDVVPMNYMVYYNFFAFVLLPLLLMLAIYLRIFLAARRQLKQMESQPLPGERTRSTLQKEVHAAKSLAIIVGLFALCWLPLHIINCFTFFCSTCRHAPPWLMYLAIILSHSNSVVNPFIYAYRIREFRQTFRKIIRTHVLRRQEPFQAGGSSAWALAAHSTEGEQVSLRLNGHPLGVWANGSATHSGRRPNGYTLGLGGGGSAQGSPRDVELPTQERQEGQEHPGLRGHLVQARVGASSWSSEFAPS

[2] = system: Mus musculus; experiment: General behavioral response in CD1 mouse assessed as induction of limbic stereotype at 30 to 100 mg/kg, po after 90 mins by Irwin test; type: organism-based, Limbic system; design: dose 30-100 mg/kg, route oral; details: in vivo, 1.5 h
[3] = system: Mus musculus; experiment: General behavioral response in CD1 mouse assessed as induction of striatal stereotype at 30 to 100 mg/kg, po after 90 mins by Irwin test; type: organism-based; design: dose 30-100 mg/kg, route oral; details: in vivo, 1.5 h
[4] = system: Mus musculus; experiment: General behavioral response in CD1 mouse assessed as induction of striatal stereotype at 10 mg/kg, po after 90 mins by Irwin test; type: organism-based; design: dose 10 mg/kg, route oral; details: in vivo, 1.5 h
[5] = biological target: Sodium-dependent noradrenaline transporter (Homo sapiens) (UniProt P23975); experiment: Displacement of [3H]nisoxetine from human recombinant norepinephrine transporter expressed in CHO cells at 10 uM after 120 mins by scintillation counting analysis; type: cell-based
Sodium-dependent noradrenaline transporter (Homo sapiens), sequence (P23975 whole entry): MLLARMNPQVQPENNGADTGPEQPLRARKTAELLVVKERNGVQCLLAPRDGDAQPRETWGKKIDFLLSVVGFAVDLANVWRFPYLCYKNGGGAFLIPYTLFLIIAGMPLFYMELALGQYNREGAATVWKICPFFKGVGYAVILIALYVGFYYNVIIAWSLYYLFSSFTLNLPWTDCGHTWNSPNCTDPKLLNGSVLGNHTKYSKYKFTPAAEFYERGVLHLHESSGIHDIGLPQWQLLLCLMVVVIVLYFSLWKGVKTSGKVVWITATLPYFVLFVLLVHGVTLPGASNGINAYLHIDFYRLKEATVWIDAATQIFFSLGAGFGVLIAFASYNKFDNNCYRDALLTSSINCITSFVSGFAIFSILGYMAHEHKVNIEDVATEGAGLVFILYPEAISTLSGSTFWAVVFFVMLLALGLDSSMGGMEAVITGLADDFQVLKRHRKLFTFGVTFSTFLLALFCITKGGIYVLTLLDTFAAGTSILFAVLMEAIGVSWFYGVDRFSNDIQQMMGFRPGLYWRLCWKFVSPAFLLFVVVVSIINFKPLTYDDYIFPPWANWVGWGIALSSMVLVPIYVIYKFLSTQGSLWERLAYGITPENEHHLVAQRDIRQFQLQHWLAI

[6] = biological target: 5-hydroxytryptamine receptor 2B (Homo sapiens) (UniProt P41595); experiment: Displacement of [125I](+/-)DOI from human recombinant 5HT2B receptor expressed in CHO cells at 10 uM after 60 mins by scintillation counting analysis; type: cell-based
5-hydroxytryptamine receptor 2B (Homo sapiens), sequence (P41595 whole entry): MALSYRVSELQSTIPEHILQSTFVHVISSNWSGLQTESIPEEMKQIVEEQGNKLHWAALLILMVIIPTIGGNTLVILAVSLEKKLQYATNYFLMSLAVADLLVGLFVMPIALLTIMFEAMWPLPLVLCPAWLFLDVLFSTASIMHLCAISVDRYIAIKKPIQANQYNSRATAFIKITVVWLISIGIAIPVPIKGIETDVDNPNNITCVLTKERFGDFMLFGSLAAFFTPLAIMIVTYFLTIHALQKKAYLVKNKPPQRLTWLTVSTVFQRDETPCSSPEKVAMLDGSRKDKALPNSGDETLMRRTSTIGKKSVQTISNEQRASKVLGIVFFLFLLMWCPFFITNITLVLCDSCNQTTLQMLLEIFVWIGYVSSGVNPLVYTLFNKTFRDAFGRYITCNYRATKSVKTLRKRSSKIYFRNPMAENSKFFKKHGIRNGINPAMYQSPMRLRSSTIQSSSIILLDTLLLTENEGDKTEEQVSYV

[7] = biological target: T1, Substance-K receptor (Homo sapiens) (UniProt P21452); experiment: Displacement of [125I]NKA human recombinant NK2 receptor expressed in CHO cells at 10 uM after 60 mins by scintillation counting analysis; type: cell-based
T1 sequence (whole entry): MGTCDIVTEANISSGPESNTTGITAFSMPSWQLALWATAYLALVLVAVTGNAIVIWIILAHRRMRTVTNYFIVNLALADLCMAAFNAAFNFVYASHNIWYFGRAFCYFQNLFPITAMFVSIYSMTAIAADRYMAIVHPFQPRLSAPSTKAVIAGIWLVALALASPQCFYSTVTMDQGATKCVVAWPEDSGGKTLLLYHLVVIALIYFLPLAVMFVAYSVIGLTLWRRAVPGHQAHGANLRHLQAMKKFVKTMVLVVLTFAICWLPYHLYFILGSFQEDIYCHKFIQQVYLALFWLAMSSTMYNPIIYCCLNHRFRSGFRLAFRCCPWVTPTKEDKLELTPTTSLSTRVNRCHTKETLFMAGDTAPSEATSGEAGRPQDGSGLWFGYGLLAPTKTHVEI

[8] = biological target: T2, Adenosine receptor A2a (Homo sapiens, UniProt P29274); experiment: Displacement of [3H]CGS 21680 from human recombinant adenosine A2A receptor expressed in HEK293 cells at 10 uM after 120 mins by scintillation counting analysis; type: cell-based
T2 sequence (P29274 whole entry): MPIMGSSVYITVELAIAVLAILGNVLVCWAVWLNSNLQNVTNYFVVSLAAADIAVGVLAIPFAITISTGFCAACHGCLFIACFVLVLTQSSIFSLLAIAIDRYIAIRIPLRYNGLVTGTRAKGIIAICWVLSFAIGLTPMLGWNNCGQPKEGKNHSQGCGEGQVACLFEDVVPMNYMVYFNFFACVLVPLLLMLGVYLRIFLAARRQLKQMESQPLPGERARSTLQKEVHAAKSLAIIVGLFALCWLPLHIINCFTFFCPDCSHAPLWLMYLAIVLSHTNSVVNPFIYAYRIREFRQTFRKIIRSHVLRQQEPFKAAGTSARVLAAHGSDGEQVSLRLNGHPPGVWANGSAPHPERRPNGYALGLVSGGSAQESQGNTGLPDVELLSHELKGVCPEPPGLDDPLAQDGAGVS

[9] = biological target: T3, Adenosine receptor A3 (Homo sapiens) (UniProt P0DMS8); experiment: Displacement of [125I]AB-MECA from human recombinant adenosine A3 receptor expressed in HEK293 cells at 10 uM after 120 mins by scintillation counting analysis; type: cell-based
T3 sequence (whole entry): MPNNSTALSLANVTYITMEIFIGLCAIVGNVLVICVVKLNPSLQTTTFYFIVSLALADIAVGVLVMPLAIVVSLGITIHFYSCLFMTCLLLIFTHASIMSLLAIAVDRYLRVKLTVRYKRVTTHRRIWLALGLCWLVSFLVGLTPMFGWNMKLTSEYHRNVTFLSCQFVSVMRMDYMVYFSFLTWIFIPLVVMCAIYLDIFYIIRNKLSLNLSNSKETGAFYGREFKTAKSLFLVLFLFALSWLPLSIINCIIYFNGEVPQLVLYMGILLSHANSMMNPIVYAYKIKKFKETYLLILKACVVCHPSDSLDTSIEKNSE

[10] = biological target: T4, Adenosine receptor A1 (Homo sapiens) (UniProt P30542); experiment: Displacement of [3H]DPCPX from human recombinant adenosine A1 receptor expressed in CHO cells at 10 uM after 60 mins by scintillation counting analysis; type: cell-based
T4 sequence (whole entry): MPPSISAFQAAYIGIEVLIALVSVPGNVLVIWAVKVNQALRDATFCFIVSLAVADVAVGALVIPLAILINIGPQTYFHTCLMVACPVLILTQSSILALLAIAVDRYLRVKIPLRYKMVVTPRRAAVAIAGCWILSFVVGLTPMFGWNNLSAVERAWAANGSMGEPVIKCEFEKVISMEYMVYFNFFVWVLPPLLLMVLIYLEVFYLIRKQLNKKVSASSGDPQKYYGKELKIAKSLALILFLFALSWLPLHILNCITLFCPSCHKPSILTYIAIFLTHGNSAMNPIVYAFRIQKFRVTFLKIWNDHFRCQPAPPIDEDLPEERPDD

[11] = system: Mus musculus; experiment: General behavioral response in CD1 mouse assessed as increase in licking behavior at 100 mg/kg, po after 240 mins by Irwin test; type: ADME, organism-based; design: dose 100 mg/kg, route oral; details: in vivo, 4 h
[12] = biological target: T5, Amine oxidase [flavin-containing] A (Homo sapiens, UniProt P21397); experiment: Inhibition of human MAOA after 1 hr by luminescence assay
T5 sequence (P21397 whole entry): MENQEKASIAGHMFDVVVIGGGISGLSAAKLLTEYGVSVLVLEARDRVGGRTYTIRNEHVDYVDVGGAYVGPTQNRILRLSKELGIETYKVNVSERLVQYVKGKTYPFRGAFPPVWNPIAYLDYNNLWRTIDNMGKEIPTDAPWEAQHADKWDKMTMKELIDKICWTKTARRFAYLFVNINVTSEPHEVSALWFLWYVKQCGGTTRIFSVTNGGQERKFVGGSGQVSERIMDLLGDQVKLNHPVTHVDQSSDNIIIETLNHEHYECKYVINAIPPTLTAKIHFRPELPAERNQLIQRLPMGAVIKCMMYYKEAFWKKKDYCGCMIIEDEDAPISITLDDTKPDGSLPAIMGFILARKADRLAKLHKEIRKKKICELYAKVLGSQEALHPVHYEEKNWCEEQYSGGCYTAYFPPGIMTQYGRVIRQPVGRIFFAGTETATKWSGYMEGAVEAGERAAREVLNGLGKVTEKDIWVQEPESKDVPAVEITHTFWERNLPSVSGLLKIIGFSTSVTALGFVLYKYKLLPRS

[13] = biological target: T6, Amine oxidase [flavin-containing] B (Homo sapiens, UniProt P27338); experiment: Inhibition of human MAOB after 1 hr by luminescence assay
T6 sequence (P27338 whole entry): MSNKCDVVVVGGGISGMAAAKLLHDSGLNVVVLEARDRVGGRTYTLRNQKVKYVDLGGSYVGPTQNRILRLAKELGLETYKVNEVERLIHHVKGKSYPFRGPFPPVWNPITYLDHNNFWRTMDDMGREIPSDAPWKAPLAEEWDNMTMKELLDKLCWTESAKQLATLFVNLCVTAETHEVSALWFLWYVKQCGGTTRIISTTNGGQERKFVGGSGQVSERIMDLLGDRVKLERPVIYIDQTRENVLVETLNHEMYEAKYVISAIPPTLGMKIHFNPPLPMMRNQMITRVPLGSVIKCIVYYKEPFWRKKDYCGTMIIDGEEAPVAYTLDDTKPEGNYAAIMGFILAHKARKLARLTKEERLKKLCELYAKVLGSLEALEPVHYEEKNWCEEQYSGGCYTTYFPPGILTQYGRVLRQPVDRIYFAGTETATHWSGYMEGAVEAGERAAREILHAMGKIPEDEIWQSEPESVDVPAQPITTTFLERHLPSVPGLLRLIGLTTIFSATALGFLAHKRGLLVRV

[14] = biological target: T2, Adenosine receptor A2a; experiment: Displacement of [3H]ZM241385 from human adenosine A2A receptor expressed in HEK293 cells after 1 hr by microbeta scintillation counting analysis; type: cell-based
[15] = system: Mus musculus; experiment: Reversal of haloperidol-induced catalepsy in po dosed CD1 mouse treated 2.5 hrs after haloperidol injection measured every 60 mins for 3 hrs; type: functional, organism-based
[16] = system: Mus musculus; experiment: Reversal of haloperidol-induced catalepsy in CD1 mouse at 10 mg/kg, po treated 2.5 hrs after haloperidol injection measured every 60 mins for 3 hrs; type: functional, organism-based; design: dose 10 mg/kg
[17] = system: Mus musculus; experiment: Reversal of haloperidol-induced catalepsy in CD1 mouse at 30 to 100 mg/kg, po treated 2.5 hrs after haloperidol injection measured every 60 mins for 3 hrs; type: functional, organism-based
[18] = system: Mus musculus; experiment: General behavioral response in CD1 mouse assessed as induction of limbic stereotype at 10 mg/kg, po after 90 mins by Irwin test; type: organism-based, Limbic system; design: dose 10 mg/kg, route oral; details: in vivo, 1.5 h

inhibition [5] | inhibition [6] | inhibition [7] | inhibition [8] | inhibition [9] | inhibition [10] | IC50 [12] | IC50 [13] | Ki [14] | Compound | Ki [1] | Activity [2] | Activity [3] | Activity [4] | Activity [11] | Activity [15] | Activity [16] | Activity [17] | Activity [18]
– | – | – | – | – | – | – | – | – | C#CCn1c(=O)c2c(nc(C#Cc3ccccc3)n2C)n(C)c1=O | 300 nM | – | – | – | – | – | – | – | –
57% | 72% | 75% | 91% | 60% | 59% | 10000 nM | 200 nM | 260 nM | Cn1c(=O)c2c(cc(/C=C/c3ccc(Cl)cc3)n2C)n(C)c1=O | – | Toxic | Toxic | Non-toxic | Toxic | Dose-dependent effect | inactive | Active | Non-toxic
